Reference: patent US20040157809A1, “Composition comprising an androgen receptor blocker and an insulin sensitizing agent and use thereof for treatment of polycystic ovary syndrome” (priority 2001, published 2004)

Key:
[1] = tested on: women with ovarian hyperandrogenism; experiment: Example 1: tolerability and safety variables (blood count, liver-kidney function); format: in vivo, human; settings: flutamide 250 mg/day
Excerpt: After 6 months on either monotherapy or combined therapy, fasting glucose and insulin were reassessed together with serum LH (luteinizing hormone), FSH (Follicle stimulating hormone), estradiol, testosterone, androstenedione, DHEAS, SHBG, and lipid profile. Blood count and liver-kidney function were also screened after 1, 3, and 6 months, as additional safety variables.

[2] = tested on: women with ovarian hyperandrogenism; experiment: Example 1: ovulation assessment by weekly serum progesterone; format: in vivo, human; settings: after 9 months; weekly serum progesterone measurements
Excerpt: Prior to start of treatment, ovulatory function was documented twice (months −3 and −1) by measuring serum progesterone concentrations in 4 consecutive samples obtained with an interval of 1 week. […] The ovulation results before start of treatment are the average of the results obtained during month -3 and -1, whereas the 3 months results are the mean of those obtained after 2 and 4 months on treatment.

Structure (SMILES): CC(C)C(=O)Nc1ccc([N+](=O)[O-])c(C(F)(F)F)c1 [Flutamide, 2-methyl-N-[4-nitro-3(trifluoromethyl)phenyl] popanamide]
- women complaining of dry skin [1]: 1 of 10
- monthly fraction of ovulatory cycles [2]: 20%
